This note sets out measurements from ChEMBL document CHEMBL1138960 (Bioorg Med Chem Lett, 2006).

Data set [1] relates to Rattus norvegicus. Kind of data set: AUC in rat after administration as its prodrug N-(4-(5-amino-1-(2,6-difluorobenzoyl)-1H-1,2,4-triazol-3-ylamino)phenylsulfonyl)-3-(4-methylpiperazin-1-yl)propanamide at 3 mg/kg, iv. The arrangement: dose 3 mg/kg, route intravenous. The class given is ADME, organism-based, Plasma. The following applies: in vivo.
The subject of data set [2] is Rattus norvegicus. Kind of data set: AUC in rat after administration as its prodrug 2-amino-N-(4-(5-amino-1-(2,6-difluorobenzoyl)-1H-1,2,4-triazol-3-ylamino)phenylsulfonyl)acetamide at 3 mg/kg, iv. The class given is ADME, organism-based, Plasma. The arrangement: dose 3 mg/kg, route intravenous. The following applies: in vivo.
For data set [3], the system named is Rattus norvegicus. The experiment in a line: AUC in rat after administration as its prodrug N-(4-(5-amino-1-(2,6-difluorobenzoyl)-1H-1,2,4-triazol-3-ylamino)phenylsulfonyl)-2-(2-methoxyethoxy)acetamide at 3 mg/kg, iv. The class given is ADME, organism-based, Plasma. The arrangement: dose 3 mg/kg, route intravenous. The following applies: in vivo.
In data set [4] the test system is Rattus norvegicus. Kind of data set: AUC in rat after administration as its prodrug ethyl 4-(4-(5-amino-1-(2,6-difluorobenzoyl)-1H-1,2,4-triazol-3-ylamino)phenylsulfonamido)-4-oxobutanoate at 3 mg/kg, iv. The class given is ADME, organism-based, Plasma. The arrangement: dose 3 mg/kg, route intravenous. The following applies: in vivo.
In data set [5] the test system is Rattus norvegicus. Kind of data set: AUC in rat after administration as its prodrug (R)-2-amino-N-(4-(5-amino-1-(2,6-difluorobenzoyl)-1H-1,2,4-triazol-3-ylamino)phenylsulfonyl)-3-hydroxypropanamide at 3 mg/kg, iv. The class given is ADME, organism-based, Plasma. Further details: dose 3 mg/kg, route intravenous. The following applies: in vivo.
Another data set deals with HeLa. Kind of data set: Antiproliferative activity against human HeLa cells. The class given is functional, cell-based.
The next data set relates to HCT-116. The experiment in a line: Antiproliferative activity against human HCT116 cells. The class given is functional, cell-based.
In data set [6] the test system is A-375. The experiment in a line: Antiproliferative activity against human A375 cells. The class given is functional, cell-based.
Data set [7] can be described thus: Solubility at pH 2.0. The following applies: buffer. The class given is physicochemical.
A short description of data set [8]: Oral bioavailability in nude mice. The following applies: mouse, in vivo. The class given is ADME, organism-based.
The nature of data set [9]: Oral bioavailability in rat. The class given is ADME, organism-based. The following applies: in vivo.
In data set [10] the test system is A-375. Kind of data set: Antitumor activity in human melanoma A375 cell line using tumor xenograft model at 100 mg/kg, ip. The class given is functional. The following applies: A-375, ip, route intraperitoneal, read-out: TGI.
A short description of data set [11]: Tmax in rat. The class given is ADME, organism-based. The following applies: in vivo.
Data set [12] in a line: Half life in rat. The following applies: in vivo. The class given is ADME, organism-based.
Data set [13] deals with Rattus norvegicus. The experiment in a line: AUC in rat after administration as its prodrug N-(4-(5-amino-1-(2,6-difluorobenzoyl)-1H-1,2,4-triazol-3-ylamino)phenylsulfonyl)-3-morpholinopropanamide at 3 mg/kg, iv. The class given is ADME, organism-based, Plasma. Further details: dose 3 mg/kg, route intravenous. The following applies: in vivo.
The test system of data set [14] is Rattus norvegicus. The experiment in a line: AUC in rat after administration as its prodrug 4-(4-(5-amino-1-(2,6-difluorobenzoyl)-1H-1,2,4-triazol-3-ylamino)phenylsulfonamido)-4-oxobutanoic acid at 3 mg/kg, iv. The class given is ADME, organism-based, Plasma. The arrangement: dose 3 mg/kg, route intravenous. The following applies: in vivo.
Data set [15] relates to Rattus norvegicus. The experiment in a line: Conversion of prodrug to parent in rat at 3 mg/kg, iv [100*AUC (JNJ-7706621) / AUC (prodrug)]. The class given is ADME, organism-based. Further details: dose 3 mg/kg, route intravenous. The following applies: in vivo.
Data set [16] has as its target Cyclin-dependent kinase 2 (Homo sapiens, UniProt P24941). Kind of data set: Inhibition of CDK2.
The nature of data set [17]: Solubility at pH 7.4. The class given is physicochemical. The following applies: buffer.
Data set [18] is described as follows: AUC in rat at 3 mg/kg, iv. The arrangement: dose 3 mg/kg, route intravenous. The following applies: plasma. The class given is ADME, organism-based.
Data set [19] has as its system A-375. Kind of data set: Antitumor activity in human melanoma A375 cell line using tumor xenograft model after 28 days at 100 mg/kg, ip. The class given is functional, organism-based. The arrangement: dose 100 mg/kg. (In general: Xenograft models place foreign cells or tissue in a host animal.)
For data set [20], the target named is Cyclin-dependent kinase 1 (Homo sapiens, UniProt P06493). Kind of data set: Inhibition of CDK1.
Cyclin-dependent kinase 1, sequence (P06493 whole entry): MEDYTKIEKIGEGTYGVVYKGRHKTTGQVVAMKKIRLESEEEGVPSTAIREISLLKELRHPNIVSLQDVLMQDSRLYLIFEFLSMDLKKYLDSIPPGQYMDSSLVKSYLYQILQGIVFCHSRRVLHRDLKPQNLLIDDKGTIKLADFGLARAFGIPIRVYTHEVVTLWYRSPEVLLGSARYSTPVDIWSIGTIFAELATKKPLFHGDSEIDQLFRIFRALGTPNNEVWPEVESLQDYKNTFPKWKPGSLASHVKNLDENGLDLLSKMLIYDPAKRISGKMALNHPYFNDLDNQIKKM

≈ marks a conversion by molar mass, not a printed value. Calls of active or inactive are those of the source.

The term AUC denotes concentration integrated over time. A word on the IC50: it is the concentration at which inhibition is half-maximal. Lower therefore signals greater potency in that assay. For orientation: solubility means how much of the substance goes into solution per volume. Read a high solubility as much dissolved substance. A word on the bioavailability: it is the share of a dose that reaches the circulation, judged against a reference dose that is usually intravenous. Higher therefore signals much systemic uptake. The Tmax is the time at which the peak concentration occurs. Broadly, the half-life is the time needed for the level to fall by half in the phase considered. A low value points to fast loss. Turning to `Nc1nc(Nc2ccc(S(N)(=O)=O)cc2)nn1C(=O)c1c(F)cccc1F` [JNJ-7706621], the AUC with Rattus norvegicus [1] worked out at 0.93 µM·h; with Rattus norvegicus [2], 3.67 µM·h; in the data set on Rattus norvegicus [3] it was 7.62 µM·h; in the data set with Rattus norvegicus [4], 29.1 µM·h; in the data set with Rattus norvegicus [5] it was 0.63 µM·h; in the data set on Rattus norvegicus [13], 1.4 µM·h. In addition, the AUC with Rattus norvegicus [14] amounted to 18 µM·h. In addition, the concentration for half-maximal inhibition (IC50) came to 0.284 µM in the data set with HeLa, 0.254 µM in the data set with HCT-116 and 0.447 µM in the data set with A-375 [6]. This molecule also returned a solubility in [7] of 6 µg/mL (≈ 15.2 µM). For the same molecule, the bioavailability is 2% in [8] and 8% in data set [9]. The inhibition in vivo at 100 mg/kg in the data set on A-375 [10] worked out at 95%. The Tmax in [11] amounted to 4.8 min. Besides, in data set [12], the half-life is 9.6 min.
Take `CCOC(=O)CCC(=O)NS(=O)(=O)c1ccc(Nc2nc(N)n(C(=O)c3c(F)cccc3F)n2)cc1`: in the data set with Rattus norvegicus [15], the Activity is recorded as 40%. Besides, the IC50 was 62 nM in data set [16], 60.2 µM in the data set on HeLa, 40.1 µM in the data set with HCT-116 and above 10 µM in the data set with A-375 [6]. For the same molecule, the solubility in data set [7] was found to be 0.2 µg/mL (≈ 0.383 µM); in data set [17], 210 µg/mL (≈ 402 µM). Moreover, the AUC in data set [18] worked out at 72.2 µM·h. In addition, the Tmax in data set [11] was 4.8 min. The half-life in [12] is 9.6 min.
Take `CN1CCN(CCC(=O)NS(=O)(=O)c2ccc(Nc3nc(N)n(C(=O)c4c(F)cccc4F)n3)cc2)CC1`: in the data set on Rattus norvegicus [15], the Activity stood at 4%. Besides, the IC50 in [16] was 266 nM; in the data set with HeLa, above 100 µM; with HCT-116, above 10 µM; with A-375 [6] it was above 100 µM. Also, the solubility in data set [7] is above 1000 µg/mL; in data set [17] it was 820 µg/mL (≈ 1490 µM). This molecule also displayed an AUC in data set [18] of 23.2 µM·h. In data set [11], the Tmax was 4.8 min. Further, the half-life in data set [12] was 9.6 min.
As for `NCC(=O)NS(=O)(=O)c1ccc(Nc2nc(N)n(C(=O)c3c(F)cccc3F)n2)cc1`, in the data set with Rattus norvegicus [15], the Activity turned out to be 31%. Also, the concentration for half-maximal inhibition (IC50) came out at 14.9 µM in the data set with HeLa, 36.9 µM in the data set on HCT-116 and 9.45 µM with A-375 [6]. In addition, the solubility in [7] was 130 µg/mL (≈ 288 µM); in [17] it was 200 µg/mL (≈ 443 µM). Also, the AUC in [18] was determined as 11.8 µM·h. For the same molecule, the Tmax in data set [11] is 4.8 min. Moreover, in data set [12], the half-life was 9.6 min.
In the case of `Nc1nc(Nc2ccc(S(=O)(=O)NC(=O)CCC(=O)O)cc2)nn1C(=O)c1c(F)cccc1F`, the outcome in the data set with A-375 [19] was inactive. Moreover, in the data set with Rattus norvegicus [15], the Activity stood at 38%. Besides, the IC50 was 71 nM in data set [16], 31.9 µM in the data set on HeLa, above 100 µM in the data set with HCT-116 and 20.2 µM with A-375 [6]. The figures for the solubility in data set [7] and in data set [17] were 0.7 µg/mL (≈ 1.42 µM) and above 1000 µg/mL, respectively. In addition, the AUC in data set [18] stood at 47 µM·h. Moreover, the Tmax in [11] amounted to 4.8 min. This molecule had a half-life in [12] of 9.6 min.
For `COCCOCC(=O)NS(=O)(=O)c1ccc(Nc2nc(N)n(C(=O)c3c(F)cccc3F)n2)cc1`, the Activity in the data set on Rattus norvegicus [15] was 18%. For the same molecule, the IC50 in data set [16] is 247 nM; with HeLa it was above 10 µM; in the data set on HCT-116, above 10 µM; in the data set on A-375 [6] it was above 100 µM. Moreover, the values for the solubility in [7] and in data set [17] were 5.4 µg/mL (≈ 10.6 µM) and above 1000 µg/mL, respectively. The molecule also came in with an AUC in data set [18] of 42.9 µM·h. Also, the Tmax in data set [11] came to 4.8 min. Besides, the half-life in data set [12] was 9.6 min.
For the molecule `Nc1nc(Nc2ccc(S(=O)(=O)NC(=O)CCN3CCOCC3)cc2)nn1C(=O)c1c(F)cccc1F`, the Activity with Rattus norvegicus [15] stood at 7%. The IC50 in data set [16] was 118 nM; in the data set with HeLa it was 20.9 µM; in the data set with HCT-116 it was 50.8 µM; in the data set on A-375 [6] it was above 100 µM. Besides, the solubility in [7] amounted to 14 µg/mL (≈ 26.1 µM); in data set [17] it was 4.7 µg/mL (≈ 8.78 µM). In addition, the AUC in data set [18] is 20.5 µM·h. Moreover, the time to peak (Tmax) in [11] came to 4.8 min. This molecule also showed a half-life in data set [12] of 9.6 min.
Regarding `Nc1nc(Nc2ccc(S(=O)(=O)NC(=O)[C@H](N)CO)cc2)nn1C(=O)c1c(F)cccc1F`, the Activity in the data set on Rattus norvegicus [15] is 8%. Moreover, the IC50 is 1410 nM in [20]; 140 nM in data set [16]; 4.02 µM in the data set with HeLa; 71.2 µM in the data set with HCT-116; above 10 µM in the data set on A-375 [6]. In addition, the values for the solubility in data set [7] and in data set [17] were 440 µg/mL (≈ 914 µM) and above 1000 µg/mL, respectively. Also, the AUC in [18] was determined as 8.15 µM·h. For the same molecule, the Tmax in data set [11] was determined as 4.8 min. Further, the half-life in [12] is 9.6 min.
